Results: patent US20230000876A1, “TREATING CANCERS WITH A CYCLIN-DEPENDENT KINASE INHIBITOR” (Nuvation Bio Inc., priority 2021, published 2023)
Read-outs that look alike come from different tables or passages of the source.

Legend:
[1] = test system: tumor fragments from a mCRPC patient; experiment: Enzalutamide-resistant patient-derived xenograft prostate model (ST2347 PDX); format: in vivo, male Balb/c nude mice
[2] = test system: SK-MEL-3; experiment: Cell viability assay, melanoma cell line SK-MEL-3; format: cell-based
Procedure: (§1) 4.4.4 Compound Plate (10×) Preparation and Compound Treatment • 10× concentrate compound plate preparation: Add 198 μL of assay medium into each well of the V-bottom plate; then transfer 2 μL of the stock compound solution of each concentration from the stock plate. Add 2 μL of DMSO into the Blank and Control wells. Pipette up and down to mix well. This V-plate is designated as the 10× concentrate compound plate. • For day 0 plate, add 15 μL of the DMSO-medium into the Control wells. The final DMSO concentration was 0.1%. Then directly proceed to cell viability assay. • For assay plate, add 15 μL of the compound-medium of each well from the 10× concentrate compound plate into the cells in 96-well assay plate according to the plate map. Add 15 μL of the DMSO-medium into the Blank and Control wells. The final DMSO concentration was 0.1%. • Return the assay plate into incubator and incubate for 6 days.
(§2) The procedures were performed according to the Promega CellTiter-Glo Luminescent Cell Viability Assay Kit manual (Promega-G7573). • The CellTiter-Glo buffer was thawed and equilibrated to room temperature prior to use. • CellTiter-Glo Substrate was equilibrated to room temperature prior to use. • The entire liquid volume of CellTiter-Glo Buffer was transferred into the amber bottle containing CellTiter-Glo Substrate to reconstitute the lyophilized enzyme/substrate mixture. […] Plates were covered with aluminum foil to protect from light. • The contents were mixed for 2 minutes on an orbital shaker to induce cell lysis. • The plate was incubated at room temperature for 20 minutes to stabilize luminescent signal. • Record luminescence on the 2104 EnVision plate reader.
(§3) Inhibition rate (IR) of the tested compounds was determined by the following formula: IR (%)=(1−(RLU compound−RLU day0)/(RLU control−RLU day0))*100%. The inhibitions of different dose of compound were calculated in Excel file, and then were used to plot inhibition curves and evaluate related parameters, such as Min (%), Max (%) and GI50. […]

[3] = test system: SK-MEL-5; experiment: Cell viability assay, melanoma cell line SK-MEL-5; format: cell-based
Procedure: as §1, §2, §3

[4] = test system: 22Rv1 tumors; experiment: 22Rv1 prostate tumor model (Example 3); format: in vivo, male Balb/c nude mice; settings: for T/C / TGI: PG-D24
Procedure: The in vivo anti-tumor efficacy of the compound of formula (I) either alone or in combination with enzalutamide prostate tumor model on male Balb/c nude mice was evaluated. The cell line is derived from a xenograft that was serially propagated in mice after castration—induced regression and relapse of the parental, androgen-dependent CWR22 xenograft.
In the study, the compound of formula (I) was dosed orally (po) once daily (QD) and enzalutamide, when administered, was dosed orally once daily for 25 days, as shown in Table 8.
The 22Rv1 tumor cells were maintained in vitro in RPMI1640 medium supplemented with 10% heat inactivated fetal bovine serum at 37° C. in an atmosphere of 5% CO2 in air. The tumor cells were routinely subcultured twice weekly. The cells growing in an exponential growth phase were harvested and counted for tumor inoculation.
Each mouse was inoculated subcutaneously at the right flank with 22Rv1 tumor cells (5*10^6) with 50% Matrigel for tumor development. The treatments were started on day 7 after tumor inoculation when the average tumor volume reached 94 mm^3. A total of 48 mice were selected and assigned into 6 groups. The testing articles were administrated to the mice according to Table 8.
The major endpoint was to see if the tumor growth could be delayed or mice could be cured. Tumor size was measured twice weekly in two dimensions using a caliper, and the volume was expressed in mm^3 using the formula: V=0.5 a×b^2 where a and b are the long and short diameters of the tumor, respectively. The tumor sizes are then used for the calculation of T/C and TGI values.
The T/C value (in percent) is an indication of antitumor effectiveness; T and C are the mean volume of the treated and control groups, respectively, on a given day.
TGI was calculated for each group using the formula: TGI (%)=[1−(Ti−T0)/(Vi−V0)]×100; Ti is the average tumor volume of a treatment group on PG-Di, T0 is the average tumor volume of the treatment group on the day of treatment start, Vi is the average tumor volume of the vehicle control group on the same day with Ti, and V0 is the average tumor volume of the vehicle group on the day of treatment start.
All groups were taken down on PG-D24 and PG-D25 when the average tumor size of vehicle group reached 2305 mm^3.
Summary statistics, including mean and the standard error of the mean (SEM), are provided for the tumor volume of each group at each time point. For comparison among groups, a one-way ANOVA was performed. All the analysis were conducted using GraphPad Prism software. p<0.05 was considered to be statistically significant.

[5] = test system: MCF-7 tumors; format: in vivo; settings: for T/C / TGI / Tumor Size: PG-D49
Procedure: The in vivo anti-tumor efficacy of the compound of formula (I) either alone or in combination with fulvestrant on MCF-7 breast tumor model on female Balb/c nude mice was evaluated. The protocol was he same as described in Example 1 with the exception that the dosing schedule of fulvestrant was modified.

CC(C)N1CCOc2c(F)cc(-c3nc(Nc4ccc(C5CCN(C)CC5)cn4)ncc3F)cc21 [Compound (I), 5-fluoro-4-(8-fluoro-4-isopropyl-3,4-dihydro-2H-benzo[b][1,4]oxazin-6-yl)-N-(5-(1-methylpiperidin-4-yl)pyridin-2-yl)pyrimidin-2-amine]
Antitumor activity over the course of the treatment ([1]; 30 mg/kg oral QD): statistically significant antitumor activity
Tumor regression ([1]; 30 mg/kg oral QD): tumor regression in all cases
Mice with 100% reduction in tumor volume ([1]; day 39 of treatment): one
Mice with >50% reduction in tumor volume ([1]; day 39 of treatment): 3 of 10
GI50 ([2]; Homo sapiens, SK-MEL3, read-out: Absolute GI50): 174 nM
Max (%) ([2]; inhibition rate): 111.93%
Min (%) ([2]; inhibition rate): −1.51%
GI50 ([3]; Homo sapiens, SK-MEL-5, read-out: Absolute GI50): 1240 nM
Max (%) ([3]; inhibition rate): 116.12%
Min (%) ([3]; inhibition rate): −2.91%
T/C ([4]; 10 mg/kg QD): 61.13%
TGI ([4]; 10 mg/kg QD): 40.49%
T/C ([4]; Compound (I) 30 mg/kg QD): 28.34%
TGI ([4]; Compound (I) 30 mg/kg QD): 74.71%
Tumor volume (mean ± SEM) ([4]; Group 3, 10 mg/kg PO QD, day 0): 94 ± 5 mm^3
Tumor volume (mean ± SEM) ([4]; Group 3, 10 mg/kg PO QD, day 3): 154 ± 12 mm^3
Tumor volume (mean ± SEM) ([4]; Group 3, 10 mg/kg PO QD, day 7): 257 ± 28 mm^3
Tumor volume (mean ± SEM) ([4]; Group 3, 10 mg/kg PO QD, day 10): 378 ± 40 mm^3
Tumor volume (mean ± SEM) ([4]; Group 3, 10 mg/kg PO QD, day 14): 598 ± 58 mm^3
Tumor volume (mean ± SEM) ([4]; Group 3, 10 mg/kg PO QD, day 17): 825 ± 87 mm^3
Tumor volume (mean ± SEM) ([4]; Group 3, 10 mg/kg PO QD, day 21): 1152 ± 114 mm^3
Tumor volume (mean ± SEM) ([4]; Group 3, 10 mg/kg PO QD, day 24): 1409 ± 102 mm^3
Tumor volume (mean ± SEM) ([4]; Group 4, 30 mg/kg PO QD, day 0): 94 ± 4 mm^3
Tumor volume (mean ± SEM) ([4]; Group 4, 30 mg/kg PO QD, day 3): 131 ± 13 mm^3
Tumor volume (mean ± SEM) ([4]; Group 4, 30 mg/kg PO QD, day 7): 165 ± 25 mm^3
Tumor volume (mean ± SEM) ([4]; Group 4, 30 mg/kg PO QD, day 10): 188 ± 30 mm^3
Tumor volume (mean ± SEM) ([4]; Group 4, 30 mg/kg PO QD, day 14): 289 ± 40 mm^3
Tumor volume (mean ± SEM) ([4]; Group 4, 30 mg/kg PO QD, day 17): 398 ± 60 mm^3
Tumor volume (mean ± SEM) ([4]; Group 4, 30 mg/kg PO QD, day 21): 546 ± 67 mm^3
Tumor volume (mean ± SEM) ([4]; Group 4, 30 mg/kg PO QD, day 24): 653 ± 64 mm^3
T/C ([5]; 10 mg/kg PO QD): 51.74%
TGI ([5]; 10 mg/kg PO QD): 55.83%
Tumor Size ([5]; 10 mg/kg PO QD): 611 mm^3
T/C ([5]; 30 mg/kg PO QD): 14.39%
TGI ([5]; 30 mg/kg PO QD): 99.02%
Tumor Size ([5]; 30 mg/kg PO QD): 170 mm^3
Toxicity (body weight changes) ([5]; MCF-7 tumor-bearing mice, 50 days): did not display toxicity
